Measured values as given in article PMC7176092, “Development of the first in vivo GPR17 ligand through an iterative drug discovery pipeline: A novel disease-modifying strategy for multiple sclerosis” (PLoS ONE, 2020).
Where two headings read alike, the source gives them in different places. Marks after values point to notes of the source that are not given here.

What was measured:
[1] = target: CXCR6 (Homo sapiens, UniProt O00574); assay: Cellular functional assay CXCR6
[2] = system: OPC-DRG co-cultures; assay: In vitro myelination assay; format: cell-based, rat OPCs, mouse DRG; details: 10 nM; CTRL 100%; mean ± S.E.M.
Description: OPC-DRG co-cultures were prepared according to a previously described protocol.
DRG explants from E14.5 mice were directly put in culture after being plucked off from embryo spinal cords. Then, they were grown in Neurobasal medium (Life Technologies) in presence of 100 ng/ml nerve growth factor (NGF, Sigma-Aldrich), and in presence of 10 μM fluorodeoxyuridine (FUDR, Sigma-Aldrich) in order to remove all non-neuronal cells.
Purified primary rat OPCs were obtained from mixed glial cultures by orbital shaking for 3 hours. […]
At day 15, OPC/DRG co-cultures treated with either the selected compounds or the vehicle were fixed and treated with rat anti-MBP (Millipore), mouse anti-SMI 31 and mouse anti-SMI 32 (Cell Signaling), followed by the secondary goat anti-rat/-mouse antibody, conjugated to Alexa Fluor 555 or Alexa Fluor 488 (Life Technologies). The quantification of myelin segments was performed following a previously described protocol with ZEISS LSM Image Browser by acquiring 6 random fields of 4–5 coverslips for each experimental condition. […] The amount of myelin per axon (myelination index) was calculated as the ratio between the white pixels area and the green pixels area. […]

[3] = system: 40 human receptors; assay: Selectivity profile on class-A GPCRs (Eurofins Cerep); details: 0.1 μM; binding and cellular assays
From the text: A subset of GPCRs with a relevant role in demyelination/remyelination was also included in this analysis.

[4] = target: T1, M2 (Homo sapiens, UniProt P08172); assay: Binding assay M2; details: 100 nM
T1 construct: Eurofins Cerep (external service)
T1 sequence (P08172 1-466): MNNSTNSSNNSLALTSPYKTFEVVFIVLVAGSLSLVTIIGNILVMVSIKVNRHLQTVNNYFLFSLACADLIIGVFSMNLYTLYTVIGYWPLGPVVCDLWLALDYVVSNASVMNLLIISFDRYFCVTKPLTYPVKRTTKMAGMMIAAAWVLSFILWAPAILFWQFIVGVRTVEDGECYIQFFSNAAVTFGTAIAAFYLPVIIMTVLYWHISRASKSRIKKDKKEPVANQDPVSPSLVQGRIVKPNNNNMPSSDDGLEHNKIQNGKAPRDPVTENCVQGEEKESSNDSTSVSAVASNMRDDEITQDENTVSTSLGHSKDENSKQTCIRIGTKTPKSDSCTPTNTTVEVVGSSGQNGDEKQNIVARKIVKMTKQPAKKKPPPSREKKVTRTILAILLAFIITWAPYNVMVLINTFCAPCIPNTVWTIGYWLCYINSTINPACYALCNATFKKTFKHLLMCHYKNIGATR

[5] = target: T2, human GPR17 (Homo sapiens, UniProt Q13304); assay: [35S]GTPγS binding assay; format: biochemical
T2 construct: HA; expressed in transfected cells
T2 sequence (Q13304 29-367): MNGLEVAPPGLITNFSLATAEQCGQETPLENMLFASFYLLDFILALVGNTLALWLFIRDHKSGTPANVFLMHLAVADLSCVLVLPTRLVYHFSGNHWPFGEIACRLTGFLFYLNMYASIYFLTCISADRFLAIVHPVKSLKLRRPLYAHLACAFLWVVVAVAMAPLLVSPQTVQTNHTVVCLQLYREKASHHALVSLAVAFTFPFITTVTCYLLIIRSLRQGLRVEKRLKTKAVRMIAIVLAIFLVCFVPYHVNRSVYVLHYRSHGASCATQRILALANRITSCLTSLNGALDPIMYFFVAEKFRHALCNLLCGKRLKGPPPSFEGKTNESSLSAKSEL
Description: [^35S]GTPγS binding assays were carried out as previously described. Briefly, control and astrocytoma 1321N1 cells stably transfected with human pcDNA3.1 (control cells) and human HA-tag GPR17 were homogenized in 5 mM Tris/HCl and 2 mM EDTA (pH 7.4) and centrifuged at 48,000g for 15 min at 4°C. The resulting pellets were washed in 50 mM Tris/HCl and 10 mM MgCl2 (pH 7.4). After protein dosage, aliquots of cell membranes were incubated with increasing concentrations of each investigated ligand (1 pM–10 μM) and GTPγS binding to activated G-proteins was quantified as previously described. Compounds were purchased from two external providers, i.e., Ambinter (Ambinter c/o Greenpharma, Orléans, France http://www.ambinter.com/) and Asinex (http://www.asinex.com/).
For analysis and graphic presentation of [^35S]GTPγS binding data, a nonlinear multipurpose curve fitting computer program (Graph-Pad Prism) was used. All data are presented as the mean ± SEM of three different experiments.
The selected 15 molecules were evaluated in our in-house [^35S]GTPγS functional assay in membranes from cells transfected with human GPR17. […] Moreover, this assay has been already successfully used in the past to measure the ability of both endogenous and novel synthetic compounds to activate GPR17 [25, 31]. All tested molecules were able to potently activate GPR17 with nanomolar/sub-nanomolar affinities. Concentration-response curves obtained for each selected compound are reported in S4 Fig.

Sequence of CXCR6 (O00574 whole entry): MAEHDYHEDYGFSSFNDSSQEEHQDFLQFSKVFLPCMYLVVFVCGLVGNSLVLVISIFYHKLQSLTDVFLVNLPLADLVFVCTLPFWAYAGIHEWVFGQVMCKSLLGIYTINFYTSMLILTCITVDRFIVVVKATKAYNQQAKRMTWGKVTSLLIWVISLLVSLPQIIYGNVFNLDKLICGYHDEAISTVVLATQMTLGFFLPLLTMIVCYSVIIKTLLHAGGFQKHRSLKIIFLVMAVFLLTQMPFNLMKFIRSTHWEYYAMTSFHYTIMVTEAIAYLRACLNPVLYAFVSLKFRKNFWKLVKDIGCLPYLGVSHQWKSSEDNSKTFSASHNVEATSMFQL

Q: Which “Agonist Response (% of Control)” value ([1]; antagonist effect, 100 nM, single replicates 1st and 2nd, 0.1 µM) does the source give for `Cc1ccc(-c2nnc(SCC(=O)Nc3nccs3)[nH]2)cc1` [Compound 9] here?
A: 103.1%

Q: What about the inhibition at 0.1 µM ([1]; read-out: % Inhibition of control agonist response) of the same molecule?
A: -0.7%

Q: What about the activity at 0.1 µM ([1]; read-out: Agonist Response (% of Control), Mean, antagonist effect, 100 nM, mean of 2) of the same molecule?
A: 104%

Q: And the activity at 0.1 µM ([1]; read-out: Agonist Response (% of Control), antagonist effect, 100 nM, single replicates 1st and 2nd)?
A: 105%

Q: And the “Myelination Index” value [2]?
A: 155.0 ± 12.08%

Q: What about the “Pharmacological activity on the tested GPCRs” value [3] of the same molecule?
A: no significant pharmacological activity

Q: And the remaining activity at 0.1 µM ([4]; mean of 2, read-out: % Of control specific binding, Mean)?
A: 108%

Q: What about the inhibition at 0.1 µM ([4]; read-out: % Inhibition of control specific binding) of the same molecule?
A: -8%

Q: And the “% Of control specific binding” value ([4]; single replicates 1 and 2, 0.1 µM)?
A: 111.1%

Q: And the remaining activity at 0.1 µM ([4]; single replicates 1 and 2, read-out: % Of control specific binding)?
A: 104%

Q: And the EC50 ([5]; membranes of 1321N1 cells transfected with human GPR17, mean ± SEM of 3 experiments)?
A: 0.64 ± 0.12 nM

Q: What about the “% Emax (ratio vs Emax of the standard)” value ([5]; standard LTD4 50 nM set to 100% († compounds)) of the same molecule?
A: 88.5 ^** %

Q: What about the “Emax (% vs basal)” value ([5]; vs basal, mean ± SEM) of the same molecule?
A: 127.8 ± 3.0%
